In ChEMBL document CHEMBL3352140, “Targeting the PPM1D phenotype; 2,4-bisarylthiazoles cause highly selective apoptosis in PPM1D amplified cell-lines” (Bioorg Med Chem Lett, 2014):
The source made the active and inactive calls. The calls are words filed in the database; no cut-off is given here.

Columns and labels:
[1] = Anticancer activity against human SMOV2 cells after 5 days incubation by SRB proliferation assay; assay type: functional; details: SMOV2, 120 h
[2] = target: T1, Protein phosphatase 1D (Homo sapiens, UniProt O15297); assay: Inhibition of PPM1D (unknown origin) phosphatase activity using peptide substrate TDDEMT*GY*VAT by malachite green/molybdate based assay
T1 sequence (O15297 whole entry): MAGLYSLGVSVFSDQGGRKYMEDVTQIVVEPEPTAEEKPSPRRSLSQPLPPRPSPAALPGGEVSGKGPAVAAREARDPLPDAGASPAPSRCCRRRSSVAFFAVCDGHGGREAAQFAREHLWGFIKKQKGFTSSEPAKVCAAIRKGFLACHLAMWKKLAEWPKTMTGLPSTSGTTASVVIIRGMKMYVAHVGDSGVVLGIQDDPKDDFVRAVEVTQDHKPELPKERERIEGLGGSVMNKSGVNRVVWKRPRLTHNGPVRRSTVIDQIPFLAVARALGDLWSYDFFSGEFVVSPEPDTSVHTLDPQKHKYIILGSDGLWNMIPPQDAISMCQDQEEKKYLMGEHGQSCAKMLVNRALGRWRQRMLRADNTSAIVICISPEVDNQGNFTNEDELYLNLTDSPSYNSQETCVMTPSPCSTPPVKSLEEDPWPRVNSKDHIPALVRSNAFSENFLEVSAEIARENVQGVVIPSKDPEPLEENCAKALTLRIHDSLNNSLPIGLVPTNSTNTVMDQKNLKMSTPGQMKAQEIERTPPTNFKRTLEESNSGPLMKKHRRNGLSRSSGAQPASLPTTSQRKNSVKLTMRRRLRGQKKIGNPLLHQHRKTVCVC

[3] = Anticancer activity against human TOV21G cells after 5 days incubation by SRB proliferation assay; assay type: functional; details: 120 h
[4] = system: SMOV2; assay: Induction of apoptosis in human SMOV2 cells assessed as increase in PARP cleavage at 1.25 to 5 uM after 24 hrs by Western blot analysis; assay type: functional, cell-based
[5] = system: TOV21G; assay: Induction of apoptosis in […] human TOV21G cells assessed as increase in PARP cleavage at 1.25 to 5 uM after 24 hrs by Western blot analysis; assay type: functional, cell-based
[6] = Anticancer activity against human TOV21G cells after 3 days incubation by SRB proliferation assay; assay type: functional; details: 72 h
[7] = target: T2, Protein phosphatase 1D (Homo sapiens) (UniProt O15297); details: SMOV2, 1.25 to 5 uM
T2 sequence (whole entry): T1 sequence (O15297 whole entry)
Description: Inhibition of PPM1D in human SMOV2 cells assessed as increase in P-S15-p53 level at 1.25 to 5 uM after 24 hrs by Western blot analysis

[8] = Anticancer activity against human SMOV2 cells after 3 days incubation by SRB proliferation assay; assay type: functional; details: SMOV2, 72 h
[9] = target: T2, Protein phosphatase 1D (Homo sapiens); details: TOV21G, 1.25 to 5 uM
Description: Inhibition of PPM1D in non-amplified human TOV21G cells assessed as increase in P-S15-p53 level at 1.25 to 5 uM after 24 hrs by Western blot analysis

[10] = Anticancer activity against PPM1D non-amplified human CAMA1 cells after 5 days incubation by SRB proliferation assay; assay type: functional; details: CAMA-1, 120 h
[11] = system: MCF7; assay: Anticancer activity against PPM1D amplified human MCF7 cells after 5 days incubation by SRB proliferation assay; assay type: functional; details: MCF7, 120 h
[12] = Anticancer activity against […] human TOV21G cells after 5 days incubation by SRB proliferation assay; assay type: functional; details: 120 h
[13] = Anticancer activity against PPM1D non-amplified human SMOV2 cells after 5 days incubation by SRB proliferation assay; assay type: functional; details: SMOV2, 120 h
[14] = system: HeLa; assay: Anticancer activity against PPM1D non-amplified human HeLa cells after 5 days incubation by SRB proliferation assay; assay type: functional; details: 120 h
[15] = Anticancer activity against PPM1D amplified human KPL1 cells after 5 days incubation by SRB proliferation assay; assay type: functional; details: KPL-1, 120 h

Row | IC50 [2] [µM] | Structure (SMILES) | GI50 [6] [µM] | GI50 [8] [µM] | also measured
1 | < 20 | O=c1[nH]c2ccc(-c3csc(-c4ccccc4)n3)cc2o1 |  |  | GI50 [1]: 2 µM; GI50 [3]: > 50 µM
2 | < 20 | O=c1[nH]c2ccc(-c3csc(-c4ccc(F)c(F)c4)n3)cc2o1 | > 50 | 0.29 | 
3 | < 20 | Cc1cc(F)ccc1-c1nc(-c2ccc3[nH]c(=O)[nH]c3c2)cs1 | > 50 | 0.001 | 
4 | < 20 | O=c1[nH]c2ccc(-c3csc(-c4ccc(F)cc4CN4CCOCC4)n3)cc2o1 | > 50 | 0.52 | 
5 | < 20 | Cc1cc(F)ccc1-c1nc(-c2ccc3c(c2)[nH]c(=O)n3CCN(C)C)cs1 | > 50 | > 50 | 
6 | < 20 | O=c1[nH]c2ccc(-c3csc(-c4cccc(F)c4)n3)cc2o1 |  |  | GI50 [1]: 0.85 µM; GI50 [3]: > 50 µM
7 | < 20 | Cc1ccc(-c2nc(-c3ccc4[nH]c(=O)oc4c3)cs2)cc1 |  |  | GI50 [1]: 24 µM; GI50 [3]: > 50 µM
8 | < 20 | CN(C)CCc1cc(F)ccc1-c1nc(-c2ccc3[nH]c(=O)oc3c2)cs1 | > 50 | 0.04 | 
9 | < 20 | O=c1[nH]c2ccc(-c3csc(-c4ccc(F)c(C(F)(F)F)c4)n3)cc2o1 | > 50 | > 50 | 
10 | < 20 | COCCOCc1cc(F)ccc1-c1nc(-c2ccc3[nH]c(=O)oc3c2)cs1 | > 50 | 0.002 | 
11 | < 20 | NCCOCc1cc(F)ccc1-c1nc(-c2ccc3[nH]c(=O)oc3c2)cs1 | > 50 | 0.003 | 

Continued, compound first:

Row | Structure (SMILES) | IC50 [2] [µM] | GI50 [6] [µM] | GI50 [8] [µM] | also measured
12 | O=c1[nH]c2ccc(-c3csc(-c4ccc(F)cc4)n3)cc2o1 | 23 | > 50 | 0.13 | Activity [4]: Active; Activity [5]: inactive; GI50 [1]: 0.01 µM; inhibition [7]: Active; GI50 [3]: > 50 µM; inhibition [9]: inactive
13 | O=c1[nH]c2ccc(-c3csc(-c4ccncc4)n3)cc2o1 | < 20 |  |  | GI50 [1]: 2.8 µM; GI50 [3]: > 50 µM
14 | N#Cc1ccc(-c2nc(-c3ccc4[nH]c(=O)oc4c3)cs2)cc1 | < 20 |  |  | GI50 [1]: 2 µM; GI50 [3]: > 50 µM
15 | CN(C)Cc1cc(F)ccc1-c1nc(-c2ccc3[nH]c(=O)oc3c2)cs1 | < 20 | > 50 | 0.01 | 
16 | Cc1cc(F)ccc1-c1nc(-c2ccc3[nH]c(=O)oc3c2)cs1 | > 100 | > 50 | 0.002 | 
17 | Cc1cc(F)ccc1-c1nc(-c2ccc3[nH]c(=O)n(CCN(C)C)c3c2)cs1 | < 20 | > 50 | 0.003 | 
18 | COCCOCc1cc(F)ccc1-c1nc(-c2ccc3[nH]c(=O)[nH]c3c2)cs1 | < 20 | > 50 | 0.013 | GI50 [10]: 15 µM; GI50 [11]: 0.005 µM; GI50 [12]: 5.6 µM; GI50 [13]: 20 µM; GI50 [14]: 3.9 µM; GI50 [15]: 0.01 µM
19 | O=c1[nH]c2ccc(-c3csc(-c4ccc(Cl)cc4)n3)cc2o1 | < 20 |  |  | GI50 [1]: 0.63 µM; GI50 [3]: > 50 µM
20 | O=c1[nH]c2ccc(-c3csc(-c4ccc(F)c(O)c4)n3)cc2o1 | < 20 | > 50 | 1.6 | 
21 | O=c1[nH]c2ccc(-c3csc(-c4ccc(F)cc4COCCN4CCCC4)n3)cc2o1 | < 20 | > 50 | 0.013 | 
22 | O=c1[nH]c2ccc(-c3csc(-c4ccc(F)cc4CO)n3)cc2o1 | < 20 | > 50 | 0.023 | 
23 | Cc1cc(-c2nc(-c3ccc4[nH]c(=O)oc4c3)cs2)ccc1F | < 20 | > 50 | 0.25 | 
24 | COc1cc(F)ccc1-c1nc(-c2ccc3[nH]c(=O)oc3c2)cs1 | < 20 | > 50 | 5.7 | 
25 | Cc1cc(F)ccc1-c1nc(-c2ccc3c(c2)CC(=O)N3)cs1 | < 20 | > 50 | 0.002 | 
26 | CCc1cc(F)ccc1-c1nc(-c2ccc3[nH]c(=O)oc3c2)cs1 | < 20 | > 50 | 0.013 | 
